In BindingDB's records for doi:10.1016/s0960-894x(98)00417-x (Affymax Research Institute, 1999) one finds Ki and IC50 data, which are given here for 2 compounds.

Assay [1] addresses Mannose-6-phosphate isomerase (Candida albicans) (UniProt P34948). The assay is described as follows: Compound was evaluated for the inhibition constant against phosphomannose isomerase enzyme of Candida albicans (CaPMI).
Assay [2] has the same target. The assay is described as follows: Compound was tested for percentage inhibition of phosphomannose isomerase enzyme of Candida albicans (CaPMI).

Mannose-6-phosphate isomerase (Candida albicans), sequence (P34948 whole entry, looked up): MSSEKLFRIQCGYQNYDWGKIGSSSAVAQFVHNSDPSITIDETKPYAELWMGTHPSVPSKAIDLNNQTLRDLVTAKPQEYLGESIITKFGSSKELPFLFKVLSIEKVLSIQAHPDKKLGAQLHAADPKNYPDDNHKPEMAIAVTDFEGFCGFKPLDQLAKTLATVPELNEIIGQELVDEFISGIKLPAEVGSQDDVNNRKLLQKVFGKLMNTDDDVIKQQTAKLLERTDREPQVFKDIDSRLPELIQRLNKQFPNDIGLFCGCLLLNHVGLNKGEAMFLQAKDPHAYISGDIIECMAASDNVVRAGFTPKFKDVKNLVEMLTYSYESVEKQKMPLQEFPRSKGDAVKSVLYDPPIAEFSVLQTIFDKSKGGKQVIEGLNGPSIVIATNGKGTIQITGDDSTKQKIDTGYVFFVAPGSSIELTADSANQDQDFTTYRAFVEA

In assay [1], `NC(=O)C1(NC(=O)CCCOc2ccc(Cl)cc2Cl)Cc2ccccc2C1` [2-[4-(2,4-Dichloro-phenoxy)-butyrylamino]-indan-2-carboxylic acid amide] yielded an inhibition constant Ki of 4 µM. This lies in the single-digit micromolar range.

For `O=C(CCCSc1ccc(Cl)c(Cl)c1)NC1(C(=O)NO)Cc2ccccc2C1` [2-[4-(3,4-Dichloro-phenylsulfanyl)-butyrylamino]-indan-2-carboxylic acid hydroxyamide], the inhibitory constant (Ki) in assay [1] is 4 µM. In addition, in assay [2], the IC50 was 6 µM.

In general, Ki refers to the equilibrium dissociation constant of an inhibitor or competing ligand from its target. For orientation: IC50 means the point on the concentration scale where inhibition reaches its midpoint. A lower IC50 goes with higher potency.
